In patent publication US6566304B1, “Biogenic control and limitation of the reproduction of parasitic earth nematodes in stock culture” (priority 1998, dated 2003):

Legend:
Assay type in all cases: in vivo
tomatoes [1] = assay: Example 6 pot test with tomatoes, reduction of nematicides: plant growth
Method: (§1) Tomatoes were pregerminated in a temperature-controlled (18° C.) greenhouse and, at the two-leaf stage, the plants were each transplanted in a plastic pot (9×9 cm) filled with 500 g of a mixture of field soil and sand (1:1). The test substances were applied 2 days after transplanting. One day later, each pot was inoculated with 1,000 larvae of the nematode Meloidogyne incognita. 6 Weeks later, the test was terminated and the density of the nematodes and also the shoot and root weights of the plants were determined.
(§2) The following variants (with 10 repetitions each) were selected for the tests: fertilized control (quantity of N/P corresponds to 40 g/m^2 TerraPy B) control treated with nematicide (Aldicarb, 1 ppm)
(§3) TerraPy B 20 g/m^2 plus Aldicarb 0.1 ppm
(§4) In addition, pots with all the variants mentioned above which had not been inoculated with nematodes were included in the tests.

sugar beet = assay: Example 3 pot test with sugar beet: plant growth
Method: (§5) Sugar beet was pregerminated in a temperature-controlled (18° C.) greenhouse and, at the two-leaf stage, the plants were each transplanted in a plastic pot (9×9 cm) filled with 500 g of a mixture of field soil and sand (1:1). The test substances were applied 2 days after transplanting. One day later, each pot was inoculated with 500 larvae of the nematode Heterodera schachtii. 6 Weeks later, the test was terminated and the density of the nematodes and also the shoot and root weights of the plants were determined.
(§6) The following variants (with 10 repetitions each) were selected for the tests:
(§7) fertilized control (quantity of N/P corresponds to 40 g/m^2 TerraPy G)
(§8) control treated with nematicide (Aldicarb, 1 ppm)

tomatoes [2] = assay: Example 4 pot test with tomatoes: plant growth
Method: (§9) Tomatoes were pregerminated in a temperature-controlled (18° C.) greenhouse and, at the two-leaf stage, the plants were each transplanted in a plastic pot (9×9 cm) filled with 500 g of a mixture of field soil and sand (1:1). The test substances were applied 2 days after transplanting. One day later, each pot was inoculated with 1,000 larvae of the nematode Meloidogyne incognita. 8 Weeks later, the test was terminated and the density of the nematodes and also the shoot and root weights of the plants were determined.
as §6
(§10) fertilized control (quantity of N/P corresponds to 40 g/m^2 TerraPy B)
as §8

[3] = tested on: nematode Heterodera schachtii; assay: Example 3 pot test with sugar beet: nematode cysts on roots; conditions: Example 3, sugar beet, 6 weeks; comparators: Aldicarb 1 ppm; fertilized control N/P corresponds to 40 g/m^2 TerraPy G
Method: as §5, §6, §7, §8

[4] = tested on: microorganisms (bacteria per g of soil); assay: Example 3 pot test with sugar beet: soil microorganisms
[5] = tested on: microorganisms (bacteria per g of soil); assay: Example 5 pot test with tomatoes: soil microorganisms
Method: as §9
(§11) The following variants (with 8 repetitions each) were selected for the tests:
as §10, §8
(§12) The object of this test was to investigate the smaller effective dose of the product.

[6] = tested on: nematode Meloidogyne incognita; assay: Example 7 pot test with tomatoes, combination with mycorrhiza: galls on root system; conditions: Aldicarb 1 ppm, fertilized control N/P corresponds to 2 g/m^2 TerraPy B, TerraPy B 2 g/m^2, mycorrhiza 0.2%
Method: (§13) Tomato seeds were planted in plastic pots (9×9 cm) each filled with 320 g of a mixture of field soil and sand (1:1) in a temperature-controlled greenhouse (18° C.). The test substances were applied 29 days after emergence. Two days later, each pot was inoculated with 1,500 larvae of the nematode Meloidogyne incognita. 9 Weeks later, the test was terminated and the density of the nematodes and the shoot and root weights of the plants were determined.
as §6
(§14) fertilized control (quantity of N/P corresponds to 2 g/m^2 TerraPy B)
(§15) nematicide-treated control (Aldicarb, 1 ppm)
(§16) mycorrhiza fungus mixture 0.2%
(§17) TerraPy B 2 g/m^2 plus mycorrhiza 0.2%
(§18) The mycorrhiza fungus mixture contained a mixed population of various Glomus strains of the species Glomus sclerocystis and G. gigasporum with 950 infectious units per cm^3 (=0.64 g per pot). The mixture was mixed with the pot soil after dilution to 0.2% at the beginning of the test.

[7] = tested on: nematode Meloidogyne incognita; assay: Example 6 pot test with tomatoes, reduction of nematicides: gall index; conditions: Example 6, tomatoes, 6 weeks; Aldicarb 1 ppm; fertilized control N/P corresponds to 40 g/m^2 TerraPy B; TerraPy B 20 g/m^2; TerraPy B 20 g/m^2 plus Aldicarb 0.1 ppm
Method: (§19) The gall index is a measure of the damage caused to the root system by the nematodes and is basically a scale of 1 to 10 where 1=undamaged and 10=completely damaged root system.
as §1, §2, §3, §4

tomatoes [8] = assay: Example 7 pot test with tomatoes, combination with mycorrhiza: plant growth; conditions: Example 7, tomatoes, 1,500 M. incognita larvae per pot, 9 weeks; Aldicarb 1 ppm; fertilized control N/P corresponds to 2 g/m^2 TerraPy B; TerraPy B 2 g/m^2; mycorrhiza 0.2%
Method: as §13, §6, §14, §15, §16, §17, §18

[9] = tested on: nematode Meloidogyne incognita; assay: Example 5 pot test with tomatoes: gall index of root system; conditions: Example 5, tomatoes, 8 weeks; scale 1 to 10; comparators: Aldicarb 1 ppm; fertilized control N/P corresponds to 40 g/m^2 TerraPy B
Method: as §19, §9, §11, §10, §8, §12

[10] = tested on: microorganisms (bacteria per g of soil); assay: Example 4 pot test with tomatoes: soil microorganisms
Method: as §9, §6, §10, §8

[11] = tested on: nematode Meloidogyne incognita; assay: Example 4 pot test with tomatoes: gall index of root system; conditions: Example 4, tomatoes, 8 weeks; scale 1 to 10 (1=undamaged, 10=completely damaged root system); comparators: Aldicarb 1 ppm; fertilized control N/P corresponds to 40 g/m^2 TerraPy B
Method: as §9, §6, §10, §8, §19

tomatoes [12] = assay: Example 5 pot test with tomatoes: plant growth; conditions: Example 5, tomatoes, 1,000 M. incognita larvae per pot, 8 weeks; comparators: Aldicarb 1 ppm; fertilized control N/P corresponds to 40 g/m^2 TerraPy B
Method: as §9, §11, §10, §8, §12

[13] = Example 4, tomatoes, 8 weeks, comparators: Aldicarb 1 ppm, fertilized control N/P corresponds to 40 g/m^2 TerraPy B
[14] = 2 days, comparators: Aldicarb 1 ppm, fertilized control
[15] = 14 days, comparators: Aldicarb 1 ppm, fertilized control
[16] = 56 days, comparators: Aldicarb 1 ppm, fertilized control

Q: How did the “plant growth / plant weight, in words” value (tomatoes [1]; Example 6, tomato pot test) turn out when `CNC(=O)O/N=C/C(C)(C)SC` [Aldicarb] was run?
A: completely ineffective

Q: And the “Root weight” value (tomatoes [1]; Example 6, tomatoes, 6 weeks, Aldicarb 1 ppm, fertilized control N/P corresponds to 40 g/m^2 TerraPy B, TerraPy B 20 g/m^2, TerraPy B 20 g/m^2 plus Aldicarb 0.1 ppm)?
A: 1.8 g

Q: And the “Shoot weight” value (tomatoes [1]; Example 6, tomatoes, 1,000 M. incognita larvae per pot, 6 weeks, Aldicarb 1 ppm, fertilized control N/P corresponds to 40 g/m^2 TerraPy B, TerraPy B 20 g/m^2, TerraPy B 20 g/m^2 plus Aldicarb 0.1 ppm)?
A: 3 g

Q: And the “plant growth / plant weight, in words” value (sugar beet; Example 3, sugar beet pot test)?
A: not effective in increasing plant weight

Q: And the “Root weight” value (sugar beet; Example 3, sugar beet, 6 weeks, comparators: Aldicarb 1 ppm, fertilized control N/P corresponds to 40 g/m^2 TerraPy G)?
A: 0.7 g

Q: And the “Shoot weight” value (sugar beet; Example 3, sugar beet, 500 H. schachtii larvae per pot, 6 weeks, comparators: Aldicarb 1 ppm, fertilized control N/P corresponds to 40 g/m^2 TerraPy G)?
A: 2.1 g

Q: What about the “plant growth / plant weight, in words” value (tomatoes [2]; Example 4, tomato pot test) of the same molecule?
A: not effective in increasing plant weight

Q: And the “Root length in cm” value (tomatoes [2]; [13])?
A: 12.0 cm

Q: And the “Root weight” value (tomatoes [2]; [13])?
A: 1.5 g

Q: What about the “Shoot weight” value (tomatoes [2]; Example 4, tomatoes, 1,000 M. incognita larvae per pot, 8 weeks, comparators: Aldicarb 1 ppm, fertilized control N/P corresponds to 40 g/m^2 TerraPy B) of the same molecule?
A: 4.7 g

Q: What about the “Nematode cysts per g root weight” value [3] of the same molecule?
A: 15 per g root weight

Q: And the “effect on bacteria / microorganisms, in words” value [4]?
A: harmful effect

Q: What about the “bacteria per g of soil, 2 Days after application” value (shortened to “bacteria per g of soil, 2 Days”) [4, 14] of the same molecule?
A: 7 × 10^6 bacteria per g of soil

Q: And the “bacteria per g of soil, 14 Days after application” value (“bacteria per g of soil, 14 Days” below) [4, 15]?
A: 8 × 10^6 bacteria per g of soil

Q: And the “bacteria per g of soil, 56 Days after application” value (shortened to “bacteria per g of soil, 56 Days”) [4, 16]?
A: 1 × 10^7 bacteria per g of soil

Q: What about the “effect on bacteria / microorganisms, in words” value [5] of the same molecule?
A: harmful effect

Q: What about the “bacteria per g of soil, 2 Days” value [5, 14] of the same molecule?
A: 6 × 10^6 bacteria per g of soil

Q: And the “bacteria per g of soil, 14 Days” value [5, 15]?
A: 1 × 10^6 bacteria per g of soil

Q: And the “bacteria per g of soil, 56 Days” value [5, 16]?
A: 5 × 10^5 bacteria per g of soil

Q: What about the “Number of galls per root system” value ([6]; Example 7, tomatoes, 9 weeks) of the same molecule?
A: 22

Q: And the “Number of galls per root system, In percent” value ([6]; Example 7, unfertilized untreated control = 100%)?
A: 19%

Q: What about the Gall index [7] of the same molecule?
A: 0.5

Q: What about the “Shoot weight” value (tomatoes [8]) of the same molecule?
A: 4.2 g

Q: What about the Gall index [9] of the same molecule?
A: 4.2

Q: What about the “effect on bacteria / microorganisms, in words” value [10] of the same molecule?
A: harmful effect

Q: And the “bacteria per g of soil, 2 Days” value [10, 14]?
A: 1 × 10^7 bacteria per g of soil

Q: What about the “bacteria per g of soil, 14 Days” value [10, 15] of the same molecule?
A: 4 × 10^7 bacteria per g of soil

Q: What about the “bacteria per g of soil, 56 Days” value [10, 16] of the same molecule?
A: 1 × 10^6 bacteria per g of soil

Q: What about the Gall index [11] of the same molecule?
A: 3.9

Q: And the “Shoot weight” value (tomatoes [12])?
A: 4.2 g
